Data set [1] relates to hRMVECs. The experiment in a line: TUNEL+ cells in hRMVECs. Type of data set: cell-based, human. As to conditions: vs. DMSO.
In another data set the test system is ROP+SO model. The experiment in a line: IVNV in rat ROP model rescued in 28% oxygen (ROP+SO model). It counts as in vivo. The conditions noted are these: intraperitoneal, p18, vs. PBS. An excerpt:
Activation of NADPH oxidase generally requires aggregation of a NOX isoform (NOX1-5, Duox1 or 2) with membrane bound p22phox; for NOX1-3 activation, aggregation with Rac1 and cytoplasmic subunits p47phox, p67phox or homologs is also required. Few studies address oxygen effects on NADPH oxidase regulated signaling in ROP or development. Studying NADPH oxidase in vivo is also complicated, because 1) of compensation from NOX isoforms or homologs, which differ in different tissues, and 2) most inhibitors are not specific. In this example, oxygen stresses were varied by using 3 different OIR models: ROP and ROP+SO models in rat and OIR model in mouse. NADPH oxidase-induced signaling in ECs was targeted by reducing leukocyte/macrophages, which generate ROS through NADPH oxidase, or with a transgenic mouse. In rat ROP and ROP+SO models, macrophages ˜75% (FIG. 7A) were reduced with 1 uL intravitreal clodronate). […] Macrophages have multiple effects on angiogenesis including through non-NADPH oxidase mechanisms, so a more specific method was used to study NADPH oxidase-related signaling. NOX 1, 2, 4 are known to be involved in pathologic retinal angiogenesis; NOX2 is in macrophages and ECs. Therefore p47phox−/− mice were used to reduce NADPH oxidase activation from NOX 1-3. […]
7 experiments were conducted to accomplish three specific objectives. […] Pup weights were monitored. […]

The subject of data set [2] is hRMVECs. The experiment in a line: VEGFA-induced hRMVEC proliferation assay (MTT). Type of data set: cell-based, human. The conditions noted are these: 20 ng/mL VEGFA 24 hours; SU5416 5 μmol/L, AG490 10 μmol/L, siRNA transfection. As to the method: (§1) For siRNA transfection, hRMVECs at 70% confluency were transfected in six-well plates with siRNAs targeting human EPOR, VEGFR2, or STAT3 (Life Technologies, Carlsbad, Calif.) using Lipofectamine 2000 reagent (Invitrogen by Life Technologies, Carlsbad, Calif.). A silencer selective negative control siRNA was used as control.
For cell proliferation assays, hRMVECs were plated into 96-well plates at a density of 5000 cells per well. At 24 hours after transfection with siRNA, cells were starved in serum-free medium for 24 hours and then were incubated with 20 ng/mL VEGFA or control PBS for another 24 hours. To inhibit VEGFR2 or STAT3 activation, cells were pretreated with 5 μmol/L of the VEGFR2 tryosine-kinase inhibitor semaxanib (SU5416), 10 μmol/L of the JAK2/STAT3 inhibitor AG490 (both from Sigma-Aldrich, St. Louis, Mo.), or dimethyl sulfoxide (DMSO) vehicle control for 1 hour before addition of VEGFA. Cell number was measured with a Vybrant MTT cell proliferation assay kit (Life Technologies, Carlsbad, Calif.).

Another data set deals with p-EPOR. The experiment in a line: Western blot of p-EPOR in hRMVECs. The conditions noted are these: 30 minutes of EPO treatment. Type of data set: cell-based, human.
Excerpt: (§2) hRMVECs (Cell Systems, Kirkland, Wash.) were maintained in EGM-2 endothelial growth medium (Lonza, Walkers-ville, MD) supplemented with 5% fetal bovine serum. Cells of passage 3 to 5 were used for experiments. […]
as §1
(§3) For cell proliferation assays, hRMVECs were plated into 96-well plates at a density of 5000 cells per well. […] Cell number was measured with a Vybrant MTT cell proliferation assay kit (Life Technologies, Carlsbad, Calif.).
Dissected retinas and hRMVECs were lysed in radioimmunoprecipitation assay buffer with 1:100 protease inhibitors (Roche Diagnostics, Indianapolis, Ind.) and 2 mmol/L sodium orthovanadate and were homogenized and centrifuged at 13,000 rpm (15,700 g) for 10 minutes at 4° C. Total protein in the supernatant fluid was quantified by a bicinchoninic acid assay (Pierce BCA; Thermo Fisher Scientific, Waltham, Mass.). […] Blots were visualized, and the relative densities of bands were calculated as described herein, using gel analysis software (UN-SCAN-IT gel, version 6.1; Silk Scientific, Orem, Utah). […]
A general note: Immunoblotting shows a protein as a band on a membrane.

For the next data set, the target named is T1, p-VEGFR2 (Homo sapiens, UniProt P35968).
T1 construct: Dissected retinas and hRMVECs were lysed in radioimmunoprecipitation assay buffer; host or cells: hRMVECs
The experiment in a line: Western blot of p-VEGFR2 in hRMVECs. Type of data set: cell-based. As to conditions: 30 minutes of EPO treatment.

A further data set has as its system EPOR. The experiment in a line: EPOR expression in hRMVECs (qPCR, Western blot). It counts as cell-based, human. The conditions noted are these: overnight treatment; 20 ng/mL VEGFA or 10 IU/mL EPO; vs PBS.
Excerpt: as §2, §1
Total RNA of cells was extracted by TRI Reagent (Sigma-Aldrich, St. Louis, Mo.). For dissected retinas, total RNA was extracted using an RNeasy mini kit (Qiagen, Valencia, Calif.). RNA was quantified using a NanoDrop spectrophotometer (Thermo Fisher Scientific, Waltham, Mass.). cDNA was generated with the use of a high-capacity cDNA archive kit (Life Technologies, Carlsbad, Calif.). qPCR was performed on a Mastercycler ep realplex system (Eppendorf, Hauppauge, N.Y.) with the use of SYBR Green master mix (Roche Diagnostics, Indianapolis, Ind.) and primers synthesized by the core research facility of the University of Utah. Expression levels for VEGFA were normalized to the mean value of internal control β-actin. […]
Dissected retinas and hRMVECs were lysed in radioimmunoprecipitation assay buffer with 1:100 protease inhibitors (Roche Diagnostics, Indianapolis, Ind.) and 2 mmol/L sodium orthovanadate and were homogenized and centrifuged at 13,000 rpm (15,700 g) for 10 minutes at 4° C. Total protein in the supernatant fluid was quantified by a bicinchoninic acid assay (Pierce BCA; Thermo Fisher Scientific, Waltham, Mass.). […] Blots were visualized, and the relative densities of bands were calculated as described herein, using gel analysis software (UN-SCAN-IT gel, version 6.1; Silk Scientific, Orem, Utah). Relative activities were calculated as the ratio of phosphorylated to total protein or to β-actin and are expressed as fold difference compared with control. At least six samples from each group were measured and analyzed.
Background: Quantitative PCR measures a nucleic acid by following its amplification.

A further data set concerns rat ROP model. The data set is described as follows: Lectin-stained retinal flat mounts, IVNV and AVA, rat ROP model (rat 50/10 OIR model). It counts as in vivo.
Another data set has as its system severe ROP. The conditions noted are these: weekly subcutaneous injections; preterm infants (n=102); cited from earlier work.
Another data set has as its system p-STAT3. The experiment in a line: Western blot of p-STAT3 in hRMVECs. The conditions noted are these: VEGFA stimulation. Type of data set: cell-based, human. As to the method: hRMVECs (Cell Systems, Kirkland, Wash.) were maintained in EGM-2 endothelial growth medium (Lonza, Walkers-ville, MD) supplemented with 5% fetal bovine serum. Cells of passage 3 to 5 were used for experiments. Confluent cells in six-well plates were starved for 16 hours and then treated with 20 ng/mL VEGFA or PBS for 24 hours for qPCR or 30 minutes for p-VEGFR2, p-EPOR, and p-STAT3.
as §1, §3
Dissected retinas and hRMVECs were lysed in radioimmunoprecipitation assay buffer with 1:100 protease inhibitors (Roche Diagnostics, Indianapolis, Ind.) and 2 mmol/L sodium orthovanadate and were homogenized and centrifuged at 13,000 rpm (15,700 g) for 10 minutes at 4° C. Total protein in the supernatant fluid was quantified by a bicinchoninic acid assay (Pierce BCA; Thermo Fisher Scientific, Waltham, Mass.). […] At least six samples from each group were measured and analyzed.

In a further data set the test system is NOX4. The experiment in a line: ROS generation mediated by NOX4 in hRMVECs. Type of data set: cell-based, human.

Consider 4 compounds from patent US10214741B2, “Methods and compositions for inhibiting retinopathy of prematurity” (University of Utah Research Foundation, priority 2014, dated 2019).

“Also recorded” adds a separate entry of the source.

T1 sequence (P35968 20-1356): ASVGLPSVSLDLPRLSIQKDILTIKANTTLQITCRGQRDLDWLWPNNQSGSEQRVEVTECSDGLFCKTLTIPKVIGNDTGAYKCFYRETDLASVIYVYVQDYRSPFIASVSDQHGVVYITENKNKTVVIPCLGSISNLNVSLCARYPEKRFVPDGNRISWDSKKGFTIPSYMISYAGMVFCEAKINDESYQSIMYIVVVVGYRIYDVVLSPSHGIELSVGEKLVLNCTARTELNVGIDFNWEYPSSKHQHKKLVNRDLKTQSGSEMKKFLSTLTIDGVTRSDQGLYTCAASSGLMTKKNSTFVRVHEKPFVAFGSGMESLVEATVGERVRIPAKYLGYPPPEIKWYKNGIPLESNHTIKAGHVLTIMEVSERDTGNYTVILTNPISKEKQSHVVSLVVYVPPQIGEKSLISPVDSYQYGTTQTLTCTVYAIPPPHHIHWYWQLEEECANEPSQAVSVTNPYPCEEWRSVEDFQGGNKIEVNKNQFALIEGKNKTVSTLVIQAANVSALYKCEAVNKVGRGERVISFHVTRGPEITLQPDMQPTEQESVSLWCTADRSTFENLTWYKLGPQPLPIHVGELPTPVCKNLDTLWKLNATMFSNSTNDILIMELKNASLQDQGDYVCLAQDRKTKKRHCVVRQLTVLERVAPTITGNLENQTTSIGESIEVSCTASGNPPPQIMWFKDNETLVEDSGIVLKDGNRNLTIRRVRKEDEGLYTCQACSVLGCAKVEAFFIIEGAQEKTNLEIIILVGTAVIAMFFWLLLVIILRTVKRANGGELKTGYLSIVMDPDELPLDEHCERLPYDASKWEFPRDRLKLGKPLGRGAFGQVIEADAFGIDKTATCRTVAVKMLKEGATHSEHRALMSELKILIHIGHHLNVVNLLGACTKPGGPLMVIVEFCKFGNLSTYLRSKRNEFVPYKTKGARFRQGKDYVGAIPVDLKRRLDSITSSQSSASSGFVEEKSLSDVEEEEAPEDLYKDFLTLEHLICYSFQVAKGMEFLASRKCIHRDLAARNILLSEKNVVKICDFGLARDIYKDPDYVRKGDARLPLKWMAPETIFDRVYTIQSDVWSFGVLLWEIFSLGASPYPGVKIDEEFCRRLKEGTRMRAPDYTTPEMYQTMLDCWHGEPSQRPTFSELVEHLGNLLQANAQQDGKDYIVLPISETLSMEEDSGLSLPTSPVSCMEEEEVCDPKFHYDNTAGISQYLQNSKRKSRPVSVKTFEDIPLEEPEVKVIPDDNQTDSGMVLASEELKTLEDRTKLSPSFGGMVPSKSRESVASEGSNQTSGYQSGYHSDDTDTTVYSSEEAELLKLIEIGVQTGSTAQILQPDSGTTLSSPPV
Excerpt for p-VEGFR2: For siRNA transfection, hRMVECs at 70% confluency were transfected in six-well plates with siRNAs targeting human EPOR, VEGFR2, or STAT3 (Life Technologies, Carlsbad, Calif.) using Lipofectamine 2000 reagent (Invitrogen by Life Technologies, Carlsbad, Calif.). […]
Dissected retinas and hRMVECs were lysed in radioimmunoprecipitation assay buffer with 1:100 protease inhibitors (Roche Diagnostics, Indianapolis, Ind.) and 2 mmol/L sodium orthovanadate and were homogenized and centrifuged at 13,000 rpm (15,700 g) for 10 minutes at 4° C. Total protein in the supernatant fluid was quantified by a bicinchoninic acid assay (Pierce BCA; Thermo Fisher Scientific, Waltham, Mass.). […] Blots were visualized, and the relative densities of bands were calculated as described herein, using gel analysis software (UN-SCAN-IT gel, version 6.1; Silk Scientific, Orem, Utah). Relative activities were calculated as the ratio of phosphorylated to total protein or to β-actin and are expressed as fold difference compared with control. […]

As to `N#C/C(=C/c1ccc(O)c(O)c1)C(=O)NCc1ccccc1` [AG490], the “TUNEL+ cells” value with hRMVECs [1] is given as “increases TUNEL+ cells”. Also, the IVNV entry in the data set with ROP+SO model is given as “inhibited Phase II IVNV in the ROP+SO; also recorded: reduced IVNV”. Further, in the data set on hRMVECs [2], the “VEGFA-induced hRMVEC proliferation” value was “reduced VEGFA-induced hRMVEC proliferation to baseline”.

Turning to erythropoietin [EPO], in the data set with p-EPOR, the p-EPOR level result is “did not increase p-EPOR and p-VEGFR2 levels”. For the same compound, in the data set with p-VEGFR2, the p-VEGFR2 level result is “did not increase p-EPOR and p-VEGFR2 levels”. In addition, the EPOR protein result in the data set on EPOR is “led to an increase in EPOR protein”. Further, the “Phase II IVNV” value in the data set with rat ROP model (ROP model) was “did not reduce Phase II IVNV”. Moreover, in the data set with rat ROP model (delivered at early ages), the “PRVD in Phase I” value is recorded as “restored PRVD in Phase I”. Also, the “restoration of developmental retinal vascularization” value in the data set on rat ROP model (exogenous) came to 40%.

Take darbepoietin: the “occurrence of severe ROP” value with severe ROP was “neither increased nor reduced the occurrence of severe ROP”.

`CO[C@@H]1[C@@H]2OP(=O)(O)OC[C@H]2O[C@H]1n1c(Sc2ccc(Cl)cc2)nc2c(N)ncnc21` [8CPT, 8CPT 2′OMe-cAMP]: the “VEGFA-induced p-STAT3” value with p-STAT3 is recorded as “inhibits VEGF (V)-induced STAT3 activation”. In addition, the “basal and VEGF-induced ROS generation” value in the data set on NOX4 is “inhibits VEGF (V)-induced STAT3 activation, B) basal and VEGF-induced ROS generation”.
